Data as given in PubChem BioAssay AID1963873 (Molecular Pharmacology Branch, DTP, NCI, 2024).

System: 276233-004-R-J1-PDC KRAS spheroids with HUVEC/MSC, viability
Experiment: Anticancer human tumor 276233-004-R-J1-PDC patient-derived colon adenocarcinoma cell line growth inhibition [KRAS2]
Conditions: for IC50: curve of first compound; for viability, T/C: stronger effect = lower value
Outline: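 Combination screen of spheroid viability in tumor-cell co-cultures with endothelial (HUVEC) and mesenchymal stem cell stroma. Each agent was tested in half-log dilutions, topping at clinical Cmax or at 10 microM without a known Cmax.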

[1] = second compound 0.1 µM, first compound 0.0316 µM
[2] = second compound 0.1 µM, first compound 0.1 µM
[3] = second compound 0.1 µM, first compound 0.316 µM
[4] = second compound 0.1 µM, first compound 1 µM
[5] = second compound 0.1 µM, first compound 3.16 µM
[6] = second compound 0.316 µM, first compound 0.0316 µM
[7] = second compound 0.316 µM, first compound 0.1 µM
[8] = second compound 0.316 µM, first compound 0.316 µM
[9] = second compound 0.316 µM, first compound 1 µM
[10] = second compound 0.316 µM, first compound 3.16 µM
[11] = second compound 1 µM, first compound 0.0316 µM
[12] = second compound 1 µM, first compound 0.1 µM
[13] = second compound 1 µM, first compound 0.316 µM
[14] = second compound 1 µM, first compound 1 µM
[15] = second compound 1 µM, first compound 3.16 µM
[16] = second compound 3.16 µM, first compound 0.0316 µM
[17] = second compound 3.16 µM, first compound 0.1 µM
[18] = second compound 3.16 µM, first compound 0.316 µM
[19] = second compound 3.16 µM, first compound 1 µM
[20] = second compound 3.16 µM, first compound 3.16 µM
[21] = second compound 10 µM, first compound 0.0316 µM
[22] = second compound 10 µM, first compound 0.1 µM
[23] = second compound 10 µM, first compound 0.316 µM
[24] = second compound 10 µM, first compound 1 µM
[25] = second compound 10 µM, first compound 3.16 µM
[26] = second compound 0.1 µM, first compound 0.01 µM
[27] = second compound 0.316 µM, first compound 0.01 µM
[28] = second compound 1 µM, first compound 0.01 µM
[29] = second compound 3.16 µM, first compound 0.01 µM
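Also: cells exposed to agents for seven days before viability read.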
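For viability, T/C in this document: 100% = DMSO vehicle control wells and lower values mean fewer viable cells.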

With `Cn1nccc1Nc1nccc(-c2cc3c(s2)C(C)(C)N(CCN2CCOCC2)C3=O)n1` + CC1OCC2(CCN(c3cnc(Sc4ccnc(N)c4Cl)c(N)n3)CC2)C1N the IC50 (second compound 0.1 µM) was 2310 nM, the IC50 (second compound 0.316 µM) was 830 nM and the IC50 (second compound 1 µM) was 476 nM. For the same molecule, the IC50 (second compound 3.16 µM) was 320 nM, the IC50 (second compound 10 µM) was less than 31.6 nM and the viability, T/C [1] was 86.9%. The viability, T/C [2] was 82.3%, the viability, T/C [3] was 76.8% and the viability, T/C [4] was 70.3%. It also gave a viability, T/C [5] of 37.7%, a viability, T/C (second compound 0.1 µM, first compound 10 µM) of 47% and a viability, T/C [6] of 79.6%. It also gave a viability, T/C [7] of 76.5%, a viability, T/C [8] of 65.5% and a viability, T/C [9] of 47.2%. It also gave a viability, T/C [10] of 33.1%, a viability, T/C (second compound 0.316 µM, first compound 10 µM) of 28.8% and a viability, T/C [11] of 78.5%. It also gave a viability, T/C [12] of 73.2%, a viability, T/C [13] of 56.2% and a viability, T/C [14] of 38%. It also gave a viability, T/C [15] of 26%, a viability, T/C (second compound 1 µM, first compound 10 µM) of 22.2% and a viability, T/C [16] of 60.7%. It also gave a viability, T/C [17] of 62.3%, a viability, T/C [18] of 49.4% and a viability, T/C [19] of 30.3%. It also gave a viability, T/C [20] of 19.7%, a viability, T/C (second compound 3.16 µM, first compound 10 µM) of 16.4% and a viability, T/C [21] of 48.4%. For the same molecule, the viability, T/C [22] was 38.2%, the viability, T/C [23] was 32.1% and the viability, T/C [24] was 23.5%. The viability, T/C [25] was 19% and the viability, T/C (second compound 10 µM, first compound 10 µM) was 16.9%.

With `CC(=O)OC12COC1CC(O)C1(C)C(=O)C(O)C3=C(C)C(OC(=O)C(O)C(NC(=O)OC(C)(C)C)c4ccccc4)CC(O)(C(OC(=O)c4ccccc4)C21)C3(C)C` (stereo not given) + COc1cc2nc(C)nc(NC(C)c3cc(N)cc(C(F)(F)F)c3)c2cc1OC1CCOC1 the IC50 (second compound 0.1 µM) was greater than 3160 nM, the IC50 (second compound 0.316 µM) was greater than 3160 nM and the IC50 (second compound 1 µM) was greater than 3160 nM. It also gave an IC50 (second compound 3.16 µM) greater than 3160 nM, an IC50 (second compound 10 µM) greater than 3160 nM and a viability, T/C [26] of 86.8%. The viability, T/C [1] was 75.9%, the viability, T/C [2] was 83.1% and the viability, T/C [3] was 91.8%. It also gave a viability, T/C [4] of 86.1%, a viability, T/C [5] of 94% and a viability, T/C [27] of 75.1%. It also gave a viability, T/C [6] of 80.7%, a viability, T/C [7] of 72% and a viability, T/C [8] of 65.4%. For the same molecule, the viability, T/C [9] was 78.3%, the viability, T/C [10] was 71.7% and the viability, T/C [28] was 73.4%. It also gave a viability, T/C [11] of 73.3%, a viability, T/C [12] of 82% and a viability, T/C [13] of 76.4%. It also gave a viability, T/C [14] of 92.2%, a viability, T/C [15] of 78.5% and a viability, T/C [29] of 78.3%. For the same molecule, the viability, T/C [16] was 70.5%, the viability, T/C [17] was 58.9% and the viability, T/C [18] was 61.2%. It also gave a viability, T/C [19] of 69.3%, a viability, T/C [20] of 66.3% and a viability, T/C (second compound 10 µM, first compound 0.01 µM) of 64.3%. For the same molecule, the viability, T/C [21] was 61.2%, the viability, T/C [22] was 73.3% and the viability, T/C [23] was 72.7%. For the same molecule, the viability, T/C [24] was 78.8% and the viability, T/C [25] was 77.8%.

For `Cn1ncnc1[C@H]1c2n[nH]c(=O)c3cc(F)cc(c23)N[C@@H]1c1ccc(F)cc1` + C=CC(=O)N1CCN(c2nc(OCC3CCCN3C)nc3c2CCN(c2cccc4cccc(C)c24)C3)CC1CC#N, the IC50 (second compound 0.0316 µM) was greater than 100 nM, the IC50 (second compound 0.1 µM) was greater than 100 nM and the IC50 (second compound 0.316 µM) was greater than 100 nM. The IC50 (second compound 1 µM) was greater than 100 nM, the IC50 (second compound 3.16 µM) was greater than 100 nM and the viability, T/C (second compound 0.0316 µM, first compound 0.000316 µM) was 111%. It also gave a viability, T/C (second compound 0.0316 µM, first compound 0.001 µM) of 107%, a viability, T/C (second compound 0.0316 µM, first compound 0.00316 µM) of 88% and a viability, T/C (second compound 0.0316 µM, first compound 0.01 µM) of 119%. The viability, T/C (second compound 0.0316 µM, first compound 0.0316 µM) was 97.7%, the viability, T/C (second compound 0.0316 µM, first compound 0.1 µM) was 92.8% and the viability, T/C (second compound 0.1 µM, first compound 0.000316 µM) was 107%. For the same molecule, the viability, T/C (second compound 0.1 µM, first compound 0.001 µM) was 113%, the viability, T/C (second compound 0.1 µM, first compound 0.00316 µM) was 103% and the viability, T/C [26] was 98%. The viability, T/C [1] was 77.3%, the viability, T/C [2] was 86.3% and the viability, T/C (second compound 0.316 µM, first compound 0.000316 µM) was 100%. It also gave a viability, T/C (second compound 0.316 µM, first compound 0.001 µM) of 107%, a viability, T/C (second compound 0.316 µM, first compound 0.00316 µM) of 113% and a viability, T/C [27] of 115%. It also gave a viability, T/C [6] of 85.5%, a viability, T/C [7] of 91.6% and a viability, T/C (second compound 1 µM, first compound 0.000316 µM) of 99%. For the same molecule, the viability, T/C (second compound 1 µM, first compound 0.001 µM) was 118%, the viability, T/C (second compound 1 µM, first compound 0.00316 µM) was 105% and the viability, T/C [28] was 116%. It also gave a viability, T/C [11] of 88.9%, a viability, T/C [12] of 110% and a viability, T/C (second compound 3.16 µM, first compound 0.000316 µM) of 74.9%. It also gave a viability, T/C (second compound 3.16 µM, first compound 0.001 µM) of 77.6%, a viability, T/C (second compound 3.16 µM, first compound 0.00316 µM) of 57.1% and a viability, T/C [29] of 52.6%. It also gave a viability, T/C [16] of 65% and a viability, T/C [17] of 72%.
